According to ChEMBL document CHEMBL5723584 (2023):

Key:
Settings in all cases: Compound concentration 1.0 uM
[1] = biological target: Serine/threonine-protein kinase LATS2 (Homo sapiens) (UniProt Q9NRM7); assay: activity of LATS2(h) at 1.0 µM in the Eurofins Kinase panel
[2] = biological target: Tyrosine-protein kinase ABL1 (Homo sapiens) (UniProt P00519); assay: activity of Abl(h) at 1.0 µM in the Eurofins Kinase panel
[3] = biological target: Serine/threonine-protein kinase MRCK alpha (Homo sapiens) (UniProt Q5VT25); assay: activity of MRCKalpha(h) at 1.0 µM in the Eurofins Kinase panel
[4] = biological target: Homeodomain-interacting protein kinase 1 (Homo sapiens) (UniProt Q86Z02); assay: activity of HIPK1(h) at 1.0 µM in the Eurofins Kinase panel
[5] = biological target: Cyclin-dependent kinase 1/cyclin B (Homo sapiens) (UniProt P06493+P14635+Q8WWL7+O95067); assay: activity of CDK1/cyclinB(h) at 1.0 µM in the Eurofins Kinase panel; assay type: protein-complex assay
[6] = biological target: cAMP-dependent protein kinase (PKA) (Homo sapiens) (UniProt P22694+P17612+P22612); assay: activity of PKA(h) at 1.0 µM in the Eurofins Kinase panel; assay type: protein assay
[7] = biological target: Tyrosine-protein kinase TXK (Homo sapiens) (UniProt P42681); assay: activity of Txk(h) at 1.0 µM in the Eurofins Kinase panel
[8] = biological target: Calcium/calmodulin-dependent protein kinase type 1 (Homo sapiens) (UniProt Q14012); assay: activity of CaMKI(h) at 1.0 µM in the Eurofins Kinase panel
[9] = biological target: Serine/threonine-protein kinase 17A (Homo sapiens) (UniProt Q9UEE5); assay: activity of DRAK1(h) at 1.0 µM in the Eurofins Kinase panel
[10] = biological target: Serine/threonine-protein kinase TAO2 (Homo sapiens) (UniProt Q9UL54); assay: activity of TAO2(h) at 1.0 µM in the Eurofins Kinase panel
[11] = biological target: Serine/threonine-protein kinase VRK1 (Homo sapiens) (UniProt Q99986); assay: activity of VRK1(h) at 1.0 µM in the Eurofins Kinase panel
[12] = biological target: Serine/threonine-protein kinase WNK2 (Homo sapiens) (UniProt Q9Y3S1); assay: activity of WNK2(h) at 1.0 µM in the Eurofins Kinase panel
[13] = biological target: Tyrosine-protein kinase receptor TYRO3 (Homo sapiens) (UniProt Q06418); assay: activity of Rse(h) at 1.0 µM in the Eurofins Kinase panel
[14] = biological target: SRSF protein kinase 2 (Homo sapiens) (UniProt P78362); assay: activity of SRPK2(h) at 1.0 µM in the Eurofins Kinase panel
[15] = biological target: Insulin receptor-related protein (Homo sapiens) (UniProt P14616); assay: activity of IRR(h) at 1.0 µM in the Eurofins Kinase panel
[16] = biological target: Non-receptor tyrosine-protein kinase TYK2 (Homo sapiens) (UniProt P29597); assay: activity of TYK2(h) at 1.0 µM in the Eurofins Kinase panel
[17] = biological target: Mitogen-activated protein kinase 13 (Homo sapiens) (UniProt O15264); assay: activity of SAPK4(h) at 1.0 µM in the Eurofins Kinase panel
[18] = biological target: Ribosomal protein S6 kinase alpha-3 (Homo sapiens) (UniProt P51812); assay: activity of Rsk2(h) at 1.0 µM in the Eurofins Kinase panel
[19] = biological target: Serine/threonine-protein kinase PLK2 (Homo sapiens) (UniProt Q9NYY3); assay: activity of Snk(h) at 1.0 µM in the Eurofins Kinase panel
[20] = biological target: Dual specificity protein kinase CLK1 (Homo sapiens) (UniProt P49759); assay: activity of CLK1(h) at 1.0 µM in the Eurofins Kinase panel
[21] = biological target: G protein-coupled receptor kinase 6 (Homo sapiens) (UniProt P43250); assay: activity of GRK6(h) at 1.0 µM in the Eurofins Kinase panel
[22] = biological target: Macrophage-stimulating protein receptor (Homo sapiens) (UniProt Q04912); assay: activity of Ron(h) at 1.0 µM in the Eurofins Kinase panel
[23] = biological target: [Pyruvate dehydrogenase (acetyl-transferring)] kinase isozyme 2, mitochondrial (Homo sapiens) (UniProt Q15119); assay: activity of PDHK2(h) at 1.0 µM in the Eurofins Kinase panel
[24] = biological target: Cyclin-dependent kinase-like 4 (Homo sapiens) (UniProt Q5MAI5); assay: activity of CDKL4(h) at 1.0 µM in the Eurofins Kinase panel
[25] = biological target: Ephrin type-B receptor 4 (Homo sapiens) (UniProt P54760); assay: activity of EphB4(h) at 1.0 µM in the Eurofins Kinase panel
[26] = biological target: Serine/threonine-protein kinase D2 (Homo sapiens) (UniProt Q9BZL6); assay: activity of PKD2(h) at 1.0 µM in the Eurofins Kinase panel
[27] = biological target: Tyrosine-protein kinase ZAP-70 (Homo sapiens) (UniProt P43403); assay: activity of ZAP-70(h) at 1.0 µM in the Eurofins Kinase panel
[28] = biological target: Insulin receptor (Homo sapiens) (UniProt P06213); assay: activity of IR(h) at 1.0 µM in the Eurofins Kinase panel
[29] = biological target: Serine/threonine-protein kinase MRCK beta (Homo sapiens) (UniProt Q9Y5S2); assay: activity of MRCKbeta(h) at 1.0 µM in the Eurofins Kinase panel
[30] = biological target: Casein kinase I isoform alpha (Homo sapiens) (UniProt P48729); assay: activity of CK1alpha(h) at 1.0 µM in the Eurofins Kinase panel
[31] = biological target: Serine/threonine-protein kinase 35 (Homo sapiens) (UniProt Q8TDR2); assay: activity of CLIK1(h) at 1.0 µM in the Eurofins Kinase panel
[32] = biological target: Serine/threonine-protein kinase 4 (Homo sapiens) (UniProt Q13043); assay: activity of MST1(h) at 1.0 µM in the Eurofins Kinase panel
[33] = biological target: G protein-coupled receptor kinase 3 (Homo sapiens) (UniProt P35626); assay: activity of GRK3(h) at 1.0 µM in the Eurofins Kinase panel
[34] = biological target: Dual specificity protein kinase CLK2 (Homo sapiens) (UniProt P49760); assay: activity of CLK2(h) at 1.0 µM in the Eurofins Kinase panel
[35] = biological target: NUAK family SNF1-like kinase 2 (Homo sapiens) (UniProt Q9H093); assay: activity of NUAK2(h) at 1.0 µM in the Eurofins Kinase panel
[36] = biological target: Casein kinase II subunit alpha' (Homo sapiens) (UniProt P19784); assay: activity of CK2alpha2(h) at 1.0 µM in the Eurofins Kinase panel
[37] = biological target: Bone morphogenetic protein receptor type-1B (Homo sapiens) (UniProt O00238); assay: activity of ALK6(h) at 1.0 µM in the Eurofins Kinase panel
[38] = biological target: PAS domain-containing serine/threonine-protein kinase (Homo sapiens) (UniProt Q96RG2); assay: activity of PASK(h) at 1.0 µM in the Eurofins Kinase panel
[39] = biological target: Calcium/calmodulin-dependent protein kinase type II subunit delta (Homo sapiens) (UniProt Q13557); assay: activity of CaMKIIdelta(h) at 1.0 µM in the Eurofins Kinase panel

Chain of Casein kinase I isoform alpha (Homo sapiens) (P48729 2-337 limits assumed): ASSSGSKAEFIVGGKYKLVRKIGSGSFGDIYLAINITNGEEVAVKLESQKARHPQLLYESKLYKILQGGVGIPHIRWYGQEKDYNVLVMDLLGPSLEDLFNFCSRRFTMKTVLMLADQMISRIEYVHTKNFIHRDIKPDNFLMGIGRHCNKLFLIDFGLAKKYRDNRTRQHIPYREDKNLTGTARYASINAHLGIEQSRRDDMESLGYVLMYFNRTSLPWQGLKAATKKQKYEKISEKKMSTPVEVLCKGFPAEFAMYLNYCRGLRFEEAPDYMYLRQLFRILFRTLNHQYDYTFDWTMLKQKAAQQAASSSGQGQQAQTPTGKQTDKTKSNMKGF
Chain of Bone morphogenetic protein receptor type-1B (Homo sapiens) (O00238 whole entry, the tested form may be a part): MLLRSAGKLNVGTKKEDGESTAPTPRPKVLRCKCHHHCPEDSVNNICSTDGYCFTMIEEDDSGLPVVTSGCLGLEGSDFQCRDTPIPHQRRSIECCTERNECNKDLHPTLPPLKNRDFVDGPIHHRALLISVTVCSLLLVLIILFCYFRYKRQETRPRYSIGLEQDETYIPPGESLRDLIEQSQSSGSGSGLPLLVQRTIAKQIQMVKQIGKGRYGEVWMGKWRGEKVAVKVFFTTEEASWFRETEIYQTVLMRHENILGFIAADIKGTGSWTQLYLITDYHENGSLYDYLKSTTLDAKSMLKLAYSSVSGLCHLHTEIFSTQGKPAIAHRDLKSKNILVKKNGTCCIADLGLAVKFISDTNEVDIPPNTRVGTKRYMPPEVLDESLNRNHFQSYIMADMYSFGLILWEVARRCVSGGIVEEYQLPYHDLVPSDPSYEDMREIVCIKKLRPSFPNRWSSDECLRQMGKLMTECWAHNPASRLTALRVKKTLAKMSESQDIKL
Chain of Mitogen-activated protein kinase 13 (Homo sapiens) (O15264 whole entry): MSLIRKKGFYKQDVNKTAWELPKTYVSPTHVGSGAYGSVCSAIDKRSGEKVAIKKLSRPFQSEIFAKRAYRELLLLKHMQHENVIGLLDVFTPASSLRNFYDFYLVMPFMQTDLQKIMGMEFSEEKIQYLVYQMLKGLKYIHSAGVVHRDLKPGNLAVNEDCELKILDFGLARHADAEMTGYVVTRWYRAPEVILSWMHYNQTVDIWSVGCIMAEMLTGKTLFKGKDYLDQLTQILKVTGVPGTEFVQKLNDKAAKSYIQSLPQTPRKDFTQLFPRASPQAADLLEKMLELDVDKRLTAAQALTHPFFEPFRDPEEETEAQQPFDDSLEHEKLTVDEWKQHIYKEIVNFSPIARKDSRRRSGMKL
Chain of Serine/threonine-protein kinase MRCK beta (Homo sapiens) (Q9Y5S2 whole entry, canonical isoform): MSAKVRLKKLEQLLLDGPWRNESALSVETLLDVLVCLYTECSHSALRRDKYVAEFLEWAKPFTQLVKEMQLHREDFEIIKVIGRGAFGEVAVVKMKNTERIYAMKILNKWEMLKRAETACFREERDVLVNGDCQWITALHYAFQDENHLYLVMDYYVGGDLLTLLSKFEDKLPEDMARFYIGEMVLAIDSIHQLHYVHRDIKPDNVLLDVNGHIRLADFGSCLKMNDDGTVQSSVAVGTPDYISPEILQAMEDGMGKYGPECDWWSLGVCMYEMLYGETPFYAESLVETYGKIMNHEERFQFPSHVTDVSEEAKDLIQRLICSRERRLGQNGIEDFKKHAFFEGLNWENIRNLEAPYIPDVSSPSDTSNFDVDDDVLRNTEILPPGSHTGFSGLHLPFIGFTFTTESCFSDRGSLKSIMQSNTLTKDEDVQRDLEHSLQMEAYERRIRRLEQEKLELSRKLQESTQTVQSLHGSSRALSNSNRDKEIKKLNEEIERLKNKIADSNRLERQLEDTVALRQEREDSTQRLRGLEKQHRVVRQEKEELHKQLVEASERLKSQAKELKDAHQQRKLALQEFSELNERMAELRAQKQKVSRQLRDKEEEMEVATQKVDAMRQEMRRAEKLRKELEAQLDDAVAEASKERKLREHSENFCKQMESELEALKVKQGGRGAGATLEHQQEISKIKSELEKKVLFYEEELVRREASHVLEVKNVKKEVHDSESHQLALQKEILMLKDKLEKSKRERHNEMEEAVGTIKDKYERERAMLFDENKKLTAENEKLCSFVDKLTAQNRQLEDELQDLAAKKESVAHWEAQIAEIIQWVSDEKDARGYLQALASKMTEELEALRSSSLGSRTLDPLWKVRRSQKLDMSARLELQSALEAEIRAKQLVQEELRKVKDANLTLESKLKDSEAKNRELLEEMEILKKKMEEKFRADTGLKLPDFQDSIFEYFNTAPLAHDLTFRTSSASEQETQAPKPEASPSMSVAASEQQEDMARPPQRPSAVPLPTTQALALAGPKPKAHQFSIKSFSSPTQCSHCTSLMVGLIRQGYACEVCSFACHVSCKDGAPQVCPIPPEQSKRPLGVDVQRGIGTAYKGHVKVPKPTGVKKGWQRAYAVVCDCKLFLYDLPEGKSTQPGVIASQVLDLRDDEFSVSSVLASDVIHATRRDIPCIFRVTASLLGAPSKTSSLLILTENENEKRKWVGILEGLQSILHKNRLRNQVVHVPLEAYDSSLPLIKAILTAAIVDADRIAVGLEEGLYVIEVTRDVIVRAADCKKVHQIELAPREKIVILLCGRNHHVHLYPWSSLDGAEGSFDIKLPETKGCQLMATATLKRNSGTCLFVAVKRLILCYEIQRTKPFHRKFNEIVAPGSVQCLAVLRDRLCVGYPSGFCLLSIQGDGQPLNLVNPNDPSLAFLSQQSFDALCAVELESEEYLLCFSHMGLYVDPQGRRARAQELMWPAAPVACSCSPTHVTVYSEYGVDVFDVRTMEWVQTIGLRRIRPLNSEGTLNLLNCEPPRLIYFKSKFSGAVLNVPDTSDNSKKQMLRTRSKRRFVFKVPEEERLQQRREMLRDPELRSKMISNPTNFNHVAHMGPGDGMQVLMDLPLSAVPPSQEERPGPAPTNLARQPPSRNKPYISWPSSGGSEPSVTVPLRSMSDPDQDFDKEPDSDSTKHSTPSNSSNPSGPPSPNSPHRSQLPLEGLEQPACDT
Chain of Insulin receptor-related protein (Homo sapiens) (P14616 27-742 limits assumed): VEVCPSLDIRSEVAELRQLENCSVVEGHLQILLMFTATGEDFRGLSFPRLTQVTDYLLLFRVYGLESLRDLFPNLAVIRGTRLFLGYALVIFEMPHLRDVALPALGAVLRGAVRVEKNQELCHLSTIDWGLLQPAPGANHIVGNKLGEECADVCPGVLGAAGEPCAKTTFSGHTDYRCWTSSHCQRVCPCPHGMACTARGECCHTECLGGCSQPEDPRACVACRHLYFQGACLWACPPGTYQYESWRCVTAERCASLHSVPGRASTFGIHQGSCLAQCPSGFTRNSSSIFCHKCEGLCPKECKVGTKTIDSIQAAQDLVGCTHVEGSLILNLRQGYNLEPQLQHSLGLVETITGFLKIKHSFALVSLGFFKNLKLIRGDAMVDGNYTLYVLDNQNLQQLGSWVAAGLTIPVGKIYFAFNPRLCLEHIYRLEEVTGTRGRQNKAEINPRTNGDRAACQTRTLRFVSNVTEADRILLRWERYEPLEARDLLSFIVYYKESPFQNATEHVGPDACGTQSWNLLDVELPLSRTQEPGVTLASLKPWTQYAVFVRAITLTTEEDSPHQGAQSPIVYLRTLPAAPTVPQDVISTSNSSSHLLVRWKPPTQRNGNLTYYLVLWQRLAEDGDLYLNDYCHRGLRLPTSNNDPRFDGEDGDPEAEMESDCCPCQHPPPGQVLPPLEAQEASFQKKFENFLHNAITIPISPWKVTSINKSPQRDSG
Chain of Insulin receptor-related protein (Homo sapiens) (P14616 747-1297 limits assumed): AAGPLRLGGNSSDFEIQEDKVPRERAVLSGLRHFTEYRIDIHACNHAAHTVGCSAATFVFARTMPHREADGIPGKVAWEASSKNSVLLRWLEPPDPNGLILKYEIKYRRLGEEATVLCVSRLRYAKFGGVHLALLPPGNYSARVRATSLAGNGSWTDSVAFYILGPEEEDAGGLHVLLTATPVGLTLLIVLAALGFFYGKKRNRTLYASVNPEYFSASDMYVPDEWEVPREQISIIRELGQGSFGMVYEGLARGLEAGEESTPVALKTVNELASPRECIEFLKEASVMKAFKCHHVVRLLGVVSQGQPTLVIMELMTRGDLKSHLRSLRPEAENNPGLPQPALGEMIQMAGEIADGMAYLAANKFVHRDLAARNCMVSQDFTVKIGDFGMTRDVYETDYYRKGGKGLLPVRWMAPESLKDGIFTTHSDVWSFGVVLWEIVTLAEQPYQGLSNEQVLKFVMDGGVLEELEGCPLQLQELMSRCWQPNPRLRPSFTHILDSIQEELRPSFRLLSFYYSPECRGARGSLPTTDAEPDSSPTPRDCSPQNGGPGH
Chain of Tyrosine-protein kinase ZAP-70 (Homo sapiens) (P43403 whole entry): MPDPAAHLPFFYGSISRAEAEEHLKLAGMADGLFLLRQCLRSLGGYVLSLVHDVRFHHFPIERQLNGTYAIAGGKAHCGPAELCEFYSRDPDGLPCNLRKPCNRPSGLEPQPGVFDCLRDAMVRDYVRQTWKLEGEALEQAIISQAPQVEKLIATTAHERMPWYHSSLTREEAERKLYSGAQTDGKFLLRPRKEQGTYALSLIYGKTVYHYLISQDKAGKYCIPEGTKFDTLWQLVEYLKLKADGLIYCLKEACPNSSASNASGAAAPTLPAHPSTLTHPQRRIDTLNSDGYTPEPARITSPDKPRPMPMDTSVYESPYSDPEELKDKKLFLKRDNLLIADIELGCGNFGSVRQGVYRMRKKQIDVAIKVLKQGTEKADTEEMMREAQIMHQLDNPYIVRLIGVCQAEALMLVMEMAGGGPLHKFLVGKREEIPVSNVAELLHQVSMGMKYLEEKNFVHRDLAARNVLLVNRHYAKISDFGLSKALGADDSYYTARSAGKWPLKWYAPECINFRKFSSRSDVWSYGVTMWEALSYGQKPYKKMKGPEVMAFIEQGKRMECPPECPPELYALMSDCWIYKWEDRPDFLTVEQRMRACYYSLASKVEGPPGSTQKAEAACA

`Cc1cc2c(-c3ccc(NC(=O)[C@H](N)CC(C)(C)C)cc3C)ccnc2[nH]1` showed an activity [1] of 102%, an activity [2] of 99% and an activity [3] of 94%. The activity [4] was 100%, the activity [5] was 94% and the activity [6] was 109%. For the same compound, the activity [7] was 110%, the activity [8] was 104% and the activity [9] was 80%. It also gave an activity [10] of 90%, an activity [11] of 99% and an activity [12] of 94%. It also gave an activity [13] of 129%, an activity [14] of 93% and an activity [15] of 110%. For the same compound, the activity [16] was 103%, the activity [17] was 94% and the activity [18] was 88%. The activity [19] was 94%, the activity [20] was 88% and the activity [21] was 95%. It also gave an activity [22] of 111%, an activity [23] of 87% and an activity [24] of 104%. For the same compound, the activity [25] was 107%, the activity [26] was 95% and the activity [27] was 71%. For the same compound, the activity [28] was 94%, the activity [29] was 100% and the activity [30] was 97%. For the same compound, the activity [31] was 97%, the activity [32] was 76% and the activity [33] was 81%. For the same compound, the activity [34] was 106%, the activity [35] was 72% and the activity [36] was 115%. The activity [37] was 74%, the activity [38] was 72% and the activity [39] was 96%.
